According to ChEMBL document CHEMBL5390277, “Development of N-Terminally Modified Variants of the CXCR4-Antagonistic Peptide EPI-X4 for Enhanced Plasma Stability” (J Med Chem, 2023):
Square brackets hold non-standard residues; d marks the D form. Peptide text beside a SMILES is read from it.

Tests used:
[1] = tested on: Human immunodeficiency virus 1; assay: Antiviral activity against HIV-1 NL4-3 infected in human TZM-bl cells assessed as inhibition of viral replication preincubated for 15 mins followed by viral infection and measured after 4320 mins by beta-gal screening assay; assay type: functional, organism-based; conditions: Human immunodeficiency virus 1, NL4-3, TZM
[2] = molecular target: T1, C-X-C chemokine receptor type 4 (Homo sapiens, UniProt P61073); assay: Displacement of 12G5 antibody from CXCR4 in human SUP-T1 cells as fold increase in apparent IC50 in presence of human plasma media incubated for 8 hrs by flow cytometry based competitive analysis; assay type: cell-based; conditions: filed as antagonist
T1 sequence (P61073 whole entry): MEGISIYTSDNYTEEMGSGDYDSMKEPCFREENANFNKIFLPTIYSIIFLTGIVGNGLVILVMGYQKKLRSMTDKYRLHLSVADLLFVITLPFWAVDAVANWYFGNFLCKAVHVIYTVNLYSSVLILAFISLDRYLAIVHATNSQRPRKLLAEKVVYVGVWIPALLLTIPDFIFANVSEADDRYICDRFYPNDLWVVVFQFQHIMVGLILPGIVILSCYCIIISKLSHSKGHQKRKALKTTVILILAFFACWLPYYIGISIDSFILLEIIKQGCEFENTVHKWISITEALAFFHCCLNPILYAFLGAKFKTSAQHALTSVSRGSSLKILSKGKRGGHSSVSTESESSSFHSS

SUP-T1 = assay: Inhibition of cell migration in human SUP-T1 cells assessed as inhibition of CXCL12 mediated cell migration incubated for 4 hrs in presence of chemoattractant, CXCL12 by Transwell based CellTiter-Glo-chemotaxis assay; assay type: functional
[3] = molecular target: T1, C-X-C chemokine receptor type 4; assay: Displacement of 12G5 antibody from CXCR4 in human SUP-T1 cells assessed as stability of the compound by measuring remaining activity in presence of human plasma media at 20 uM by flow cytometry based competitive analysis relative to control; assay type: cell-based
[4] = molecular target: T1, C-X-C chemokine receptor type 4; assay: Antagonist activity at CXCR4 (unknown origin) expressed in human HEK293T cells co-expressing SmBiT-beta-arrestin2 preincubated with compound for 10 mins followed by CXCL12 stimulation and measured for 120 mins by beta-arrestin2 recruitment based NanoBiT assay; assay type: functional, cell-based
[5] = molecular target: T1, C-X-C chemokine receptor type 4; assay: Antagonist activity at CXCR4 in human SUP-T1 cells assessed as inhibition of CXCL12-induced ERK phosphorylation preincubated with 15 mins followed by CXCL12 stimulation and measured after 12 mins by flow cytometry analysis; assay type: functional, cell-based
[6] = molecular target: T1, C-X-C chemokine receptor type 4; assay: Displacement of 12G5 mAb from CXCR4 in human SUP-T1 cells incubated for 2 hrs by flow cytometry analysis; assay type: cell-based
[7] = Toxicity in Zebrafish embryo incubated for 24 hrs by microscopic analysis; design: species or system Danio rerio; conditions: in vivo
[8] = molecular target: T1, C-X-C chemokine receptor type 4; assay: Displacement of 12G5 antibody from CXCR4 in human SUP-T1 cells as fold increase in apparent IC50 in presence of human plasma media by flow cytometry based competitive analysis; assay type: cell-based; conditions: filed as antagonist
[9] = Stability in C57BL/6 mouse plasma assessed as compound remaining at 3.5 mg/kg,iv administration and measured after 30 mins in presence of fluorescent labeled CXCR4 antibody and CXCR4 expressing human SUP-T1 cells by antibody-competition based flow cytometry assay; assay type: ADME, organism-based; conditions: in vivo, 0.5 h
[10] = Stability in human plasma assessed as half life measured upto 120 mins by mass spectrometry method; assay type: ADME, cell-free
[11] = molecular target: T1, C-X-C chemokine receptor type 4; assay: Displacement of 12G5 antibody from CXCR4 in human SUP-T1 cells in presence of human plasma media incubated for 2 hrs by flow cytometry based competitive analysis; assay type: cell-based
[12] = molecular target: T1, C-X-C chemokine receptor type 4; assay: Displacement of 12G5 antibody from CXCR4 in human SUP-T1 cells in presence of human plasma media incubated for 8 hrs by flow cytometry based competitive analysis; assay type: cell-based

| SMILES | IC50 [1] [nM] | fold change (FC) [2] | Activity [3] [%] | IC50 [4] [nM] | IC50 [5] [nM] | IC50 [6] [nM] | fold change (FC) [8] | Stability [9] | half-life [10] [min] | IC50 [11] [nM] | IC50 [12] [nM] | inhibition (SUP-T1) | Activity [7] |
| --- | --- | --- | --- | --- | --- | --- | --- | --- | --- | --- | --- | --- | --- |
| CC[C@@H](C)[C@@H](N)C(=O)N[C@@H](CC(C)C)C(=O)N[C@@H](CCCNC(=N)N)C(=O)N[C@@H](Cc1c[nH]c2ccccc12)C(=O)N[C@@H](CO)C(=O)N[C@@H](CCCNC(=N)N)C(=O)N[C@@H](CCCCN)C(N)=O (H-[dI]LRWSRK-NH2) | 1990 | 1.1 | 100 | 92 | 6750 | 263 | 1 | Stable |  |  |  | Dose-Dependent Effect | Non-Toxic |
| CSCC[C@H](NC(=O)[C@H](CCCCN)NC(=O)[C@H](CCCNC(=N)N)NC(=O)[C@H](CO)NC(=O)[C@H](Cc1c[nH]c2ccccc12)NC(=O)[C@H](CCCNC(=N)N)NC(=O)[C@H](CC(C)C)NC(=O)[C@H](N)CC(C)C)C(=O)N1CCC[C@H]1C(=O)N[C@@H](CS)C(=O)N[C@H](C(=O)N[C@@H](CO)C(=O)O)C(C)C (H-[dL]LRWSRKMPCVS-OH) | 153 |  |  | 257 | 3660 | 310 |  |  |  |  |  | Dose-Dependent Effect | Non-Toxic |
| CC[C@@H](C)[C@@H](N)C(=O)N[C@@H](CC(C)C)C(=O)N[C@@H](CCCNC(=N)N)C(=O)N[C@@H](Cc1c[nH]c2ccccc12)C(=O)N[C@@H](CO)C(=O)N[C@@H](CCCNC(=N)N)C(=O)N[C@@H](CCCCN)C(=O)N[C@@H](CC(C)C)C(=O)N1CCC[C@H]1C(N)=O (H-[dI]LRWSRKLP-NH2) | 551 |  |  | 118 | 4540 | 453 |  |  |  |  |  | Dose-Dependent Effect | Non-Toxic |
| CSCC[C@H](NC(=O)[C@H](N)CC(C)C)C(=O)N[C@@H](CCCNC(=N)N)C(=O)N[C@@H](Cc1c[nH]c2ccccc12)C(=O)N[C@@H](CO)C(=O)N[C@@H](CCCNC(=N)N)C(=O)N[C@@H](CCCCN)C(=O)N[C@@H](CCSC)C(=O)N1CCC[C@H]1C(=O)N[C@@H](CS)C(=O)N[C@H](C(=O)N[C@@H](CO)C(=O)O)C(C)C (H-[dL]MRWSRKMPCVS-OH) |  |  |  |  |  |  |  |  |  |  |  | Dose-Dependent Effect | Non-Toxic |

More lines, main results first:

| IC50 [1] [nM] | fold change (FC) [2] | Activity [3] [%] | IC50 [4] [nM] | IC50 [5] [nM] | IC50 [6] [nM] | fold change (FC) [8] | Stability [9] | half-life [10] [min] | IC50 [11] [nM] | IC50 [12] [nM] | SMILES | inhibition (SUP-T1) | Activity [7] |
| --- | --- | --- | --- | --- | --- | --- | --- | --- | --- | --- | --- | --- | --- |
| 562 |  |  |  | 8050 | 345 |  |  | 5.2 |  |  | CC[C@H](C)[C@H](N)C(=O)N[C@H](C(=O)N[C@@H](CCCNC(=N)N)C(=O)N[C@@H](Cc1c[nH]c2ccccc12)C(=O)N[C@@H](CO)C(=O)N[C@@H](CCCCN)C(=O)N[C@@H](CCCCN)C(=O)N[C@H](C(=O)N1CCC[C@H]1C(=O)N[C@@H](CS)C(=O)N[C@H](C(=O)N[C@@H](CO)C(=O)O)C(C)C)C(C)C)C(C)C (H-IVRWSKKVPCVS-OH) |  |  |
|  |  | 100 |  |  |  | 1 | Unstable |  | 476 | 1590 | CC[C@H](C)[C@H](N)C(=O)N[C@@H](CC(C)C)C(=O)N[C@@H](CCCNC(=N)N)C(=O)N[C@@H](Cc1c[nH]c2ccccc12)C(=O)N[C@@H](CO)C(=O)N[C@@H](CCCNC(=N)N)C(=O)N[C@@H](CCCCN)C(=O)N[C@@H](CC(C)C)C(=O)N1CCC[C@H]1C(=O)N[C@@H](CS)C(=O)N[C@H](C(=O)N[C@@H](CO)C(=O)O)C(C)C |  |  |
